Assay results reported in patent US20020198510A1, “Method for nasal application of a medicinal substance” (priority 2001, published 2002).
Entries after “also recorded” stand apart in the source; their conditions may differ.

Assay: Evans Blue Dye distribution after administration into the nose of mice
Assay type: in vivo
Set-up: key to Dye in Stomach / Dye in Lung: -: no dye is present; traces: minimal amounts are present when examined with the unaided eye but that do not clearly show on photographs; yes: dye is clearly visible; +: dye is clearly visible; ++: heavy dye presence
Settings: for Dye in Nose Skin / Dye in Oral Cavity / Dye in Stomach / Dye in Esophagus Lower / Dye in Esophagus Upper / Dye in Larynx / Dye in Nasal Cavity / Dye in Trachea Upper / Dye in Lung / Dye in Trachea Lower / Dye in Intestine: 60 min to sacrifice
Procedure: To show the distribution of liquid administered through the nose, Evans Blue Dye (0.3%) was administered through a micropipette tip into the nose of mice and chinchillas at various doses, at various levels of sedation or anesthesia, and with the animals in various positions.

[1] = Dye 30 μl, 1 drop/5 sec interval, Upright/Not held, anesthesia 200 μl (heavy)
[2] = Dye 30 μl, 2 μl/nare at 5 min interval, Supine/Supine, anesthesia 200 μl (Mod*)
[3] = Dye 30 μl, 2 μl/nare at 5 min interval, Supine/Supine, anesthesia 200 μl (heavy)
[4] = Dye 30 μl, 2 μl/nare at 5 min interval, Supine/Supine, anesthesia 350 μl (heavy)
[5] = Dye 30 μl, 2 μl/nare at 5 min interval, Supine/Supine, anesthesia 400 μl (heavy)
[6] = Dye 30 μl, 5 μl/nare at 10 min interval, Supine/Supine, anesthesia 200 μl (heavy)
[7] = Dye 40 μl single dose, Upright/Not held, anesthesia 200 μl (heavy)
[8] = Dye 40 μl, 2 μl/nare at 5 min interval, Supine/Supine, anesthesia 200 μl (heavy)
[9] = Dye 50 μl single dose, Upright/Not held, 0 μl (Alert)
[10] = Dye 50 μl single dose, Upright/Not held, anesthesia 120 μl (Mod)
[11] = Dye 50 μl single dose, Upright/Not held, anesthesia 200 μl (heavy)
[12] = Dye 50 μl, 5 μl/nare at 30 sec interval, Upright/Not held, anesthesia 120 μl (Mod)

SMILES: Cc1cc(-c2ccc(/N=N/c3ccc4c(S(=O)(=O)[O-])cc(S(=O)(=O)[O-])c(N)c4c3O)c(C)c2)ccc1/N=N/c1ccc2c(S(=O)(=O)[O-])cc(S(=O)(=O)[O-])c(N)c2c1O.[Na+].[Na+].[Na+].[Na+] [Dye, Evans Blue Dye]
- Dye in Nose Skin [1]: Yes
- Dye in Oral Cavity [1]: Yes
- Dye in Stomach [1]: +
- Dye in Esophagus Lower [2]: Yes/Yes
- Dye in Esophagus Upper [2]: Yes/Yes
- Dye in Larynx [2]: Yes
- Dye in Nasal Cavity [2]: Yes
- Dye in Nose Skin [2]: Yes
- Dye in Oral Cavity [2]: Yes
- Dye in Stomach [2]: +
- Dye in Esophagus Upper [3]: Traces
- Dye in Larynx [3]: Yes
- Dye in Nasal Cavity [3]: Yes
- Dye in Nose Skin [3]: Yes
- Dye in Oral Cavity [3]: Yes
- Dye in Esophagus Upper [4]: Traces
- Dye in Larynx [4]: Yes
- Dye in Nasal Cavity [4]: Yes
- Dye in Nose Skin [4]: Yes
- Dye in Oral Cavity [4]: Yes
- Dye in Trachea Upper [4]: Traces
- Dye in Larynx [5]: Yes
- Dye in Nasal Cavity [5]: Yes
- Dye in Nose Skin [5]: Yes
- Dye in Oral Cavity [5]: Yes
- Dye in Esophagus Lower [6]: Yes/Yes
- Dye in Esophagus Upper [6]: Yes/Yes
- Dye in Larynx [6]: Yes
- Dye in Lung [6]: + and Traces
- Dye in Nasal Cavity [6]: Yes
- Dye in Nose Skin [6]: Yes
- Dye in Stomach [6]: +
- Dye in Trachea Lower [6]: Yes/Yes
- Dye in Trachea Upper [6]: Yes/Yes
- Dye in Esophagus Lower [7]: Yes/Yes
- Dye in Esophagus Upper [7]: Yes/Yes
- Dye in Intestine [7]: Yes
- Dye in Larynx [7]: Yes
- Dye in Lung [7]: +
- Dye in Nasal Cavity [7]: Yes
- Dye in Nose Skin [7]: Yes
- Dye in Oral Cavity [7]: Yes
- Dye in Stomach [7]: +
- Dye in Trachea Lower [7]: Yes/Yes
- Dye in Trachea Upper [7]: Yes/Yes
- Dye in Esophagus Lower [8]: Yes/Yes
- Dye in Esophagus Upper [8]: Yes/Yes
- Dye in Larynx [8]: Yes
- Dye in Nasal Cavity [8]: Yes
- Dye in Nose Skin [8]: Yes
- Dye in Oral Cavity [8]: Yes
- Dye in Stomach [8]: ++
- Dye in Esophagus Lower [9]: Traces
- Dye in Esophagus Upper [9]: Traces/
- Dye in Intestine [9]: Yes
- Dye in Larynx [9]: Yes
- Dye in Nasal Cavity [9]: Yes
- Dye in Nose Skin [9]: Yes
- Dye in Oral Cavity [9]: Yes
- Dye in Stomach [9]: ++ and +
- Dye in Esophagus Lower [10]: Yes/Yes
- Dye in Esophagus Upper [10]: Yes/Yes
- Dye in Larynx [10]: Yes
- Dye in Nasal Cavity [10]: Yes
- Dye in Nose Skin [10]: Yes
- Dye in Oral Cavity [10]: Yes
- Dye in Stomach [10]: ++
- Dye in Trachea Lower [10]: Yes/Yes; also recorded: Traces
- Dye in Trachea Upper [10]: Yes/Yes and Yes/
- Dye in Esophagus Lower [11]: Yes/Yes
- Dye in Esophagus Upper [11]: Yes/Yes
- Dye in Larynx [11]: Yes
- Dye in Lung [11]: + and ++
- Dye in Nasal Cavity [11]: Yes
- Dye in Nose Skin [11]: Yes
- Dye in Oral Cavity [11]: Yes
- Dye in Stomach [11]: +
- Dye in Trachea Lower [11]: Yes/Yes
- Dye in Trachea Upper [11]: Yes/Yes
- Dye in Esophagus Lower [12]: Yes/Yes
- Dye in Esophagus Upper [12]: Yes/Yes
- Dye in Larynx [12]: Yes
- Dye in Nasal Cavity [12]: Yes
- Dye in Nose Skin [12]: Yes
- Dye in Oral Cavity [12]: Yes
- Dye in Stomach [12]: +
- Dye retention in nasal passages and sinuses by position (mice, prone versus supine position): the converse is true for mice
- Dye retention in nasal passages and sinuses by alertness (mouse, alert versus anesthetized): an anesthetized state is preferred
- Dye reaching stomach and esophagus (optimal divided dose conditions for the mouse (Table 9)): essentially no dye reached the stomach and very little dye reached the esophagus
- Dye retention in nasal passages and sinus cavities (series of low doses versus a single larger dose): more material can be retained in the nasal passages and sinus cavities than when a single larger dose is used
- Dye retention in nasal passages and sinuses versus loss (when a lower dose is used): more dye is retained in the nasal passages and sinuses and less dye is lost to the esophagus, stomach, intestines and lungs
